The test system of this experiment is BDF1 mice, P388 leukemia ip, median survival T/C. In words: NCI In Vivo Anticancer Drug Screen. Data for tumor model P388 Leukemia (intraperitoneal) in B6D2F1 (BDF1) mice. The following applies: endpoint: median survival time, higher = longer survival. In outline: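 Read-out is survival of treated animals expressed relative to the vehicle group, as a T/C ratio.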

Setting [1] is: dose: 200.0 mg/kg/injection, schedule: Q04DX003 (ip), vehicle: saline with Tween-80.
Where [2] appears, read: dose: 264.0 mg/kg/injection, schedule: Q04DX003 (ip), vehicle: saline with Tween-80.
Where [3] appears, read: dose: 400.0 mg/kg/injection, schedule: Q04DX003 (ip), vehicle: saline with Tween-80.
[4] abbreviates: dose: 50.0 mg/kg/injection, schedule: Q01DX009 (ip), vehicle: saline with Tween-80.
Where [5] appears, read: dose: 200.0 mg/kg/injection, schedule: Q01DX009 (ip), vehicle: saline with Tween-80.
[6] abbreviates: dose: 100.0 mg/kg/injection, schedule: Q01DX009 (ip), vehicle: saline with Tween-80.

Several values for one entry are separate records, joined by “and”; a condition that tells them apart may be missing. Equal entries are not always repeated. Toxic doses and inconclusive results are not listed.

Turning to `CS(=O)(=O)OCC(=O)NCCNC(=O)COS(C)(=O)=O`, the T/C by setting is: under setting [1], 152 % of control; under setting [2], 160 % of control; (dose: 264.0 mg/kg/injection, schedule: Q04DX003 (ip), vehicle: saline) 165 % of control; under setting [3], 169 % of control and 180 % of control; (dose: 400.0 mg/kg/injection, schedule: Q04DX003 (ip), vehicle: saline) 152 % of control; (dose: 600.0 mg/kg/injection, schedule: Q04DX003 (ip), vehicle: saline) 182 % of control.
For `CN(C)c1ccc(/C=C/c2ccnc3ccc(I)cc23)cc1`, the T/C is 96 % of control (dose: 6.25 mg/kg/injection, schedule: Q01DX009 (ip), vehicle: saline with Tween-80); 119 % of control (dose: 12.5 mg/kg/injection, schedule: Q01DX009 (ip), vehicle: saline with Tween-80); 116 % of control under setting [4].
For the compound `CCOP(=S)(N1CC1(C)C)N1CC1(C)C` (stereo unspecified), the T/C under setting [2] was 229 % of control.
Take `Nc1nc(CNc2ccc(Cl)cc2)nc(Nc2cccc(Cl)c2)n1`: the T/C reads like this: (dose: 100.0 mg/kg/injection, schedule: Q01DX001 (ip), vehicle: saline sonified) 100 % of control; (dose: 200.0 mg/kg/injection, schedule: Q01DX001 (ip), vehicle: saline sonified) 105 % of control; (dose: 400.0 mg/kg/injection, schedule: Q01DX001 (ip), vehicle: saline sonified) 100 % of control.
`CCC(C(=O)O)c1ccccc1` (stereo unspecified): the T/C under setting [4] is 90 % of control and the T/C under setting [5] was 109 % of control.
As to `O=C1C=CC(=O)N1c1ccc(Cl)cc1`, the T/C (dose: 1.25 mg/kg/injection, schedule: Q04DX003 (ip), vehicle: Klucel (hydroxypropylcellulose) (HPC)) was 114 % of control; the T/C (dose: 2.5 mg/kg/injection, schedule: Q01DX009 (ip), vehicle: Klucel (hydroxypropylcellulose) (HPC)) is 159 % of control; the T/C (dose: 2.5 mg/kg/injection, schedule: Q04DX003 (ip), vehicle: Klucel (hydroxypropylcellulose) (HPC)) is 122 % of control; the T/C (dose: 5.0 mg/kg/injection, schedule: Q04DX003 (ip), vehicle: Klucel (hydroxypropylcellulose) (HPC)) is 108 % of control; the T/C (dose: 10.0 mg/kg/injection, schedule: Q04DX003 (ip), vehicle: Klucel (hydroxypropylcellulose) (HPC)) was 107 % of control; the T/C (dose: 20.0 mg/kg/injection, schedule: Q01DX009 (ip), vehicle: Klucel (hydroxypropylcellulose) (HPC)) was 115 % of control.
Turning to `NC(=O)NNC(N)=O`, the T/C was 105 % of control (dose: 12.5 mg/kg/injection, schedule: Q04DX003 (ip), vehicle: saline); 100 % of control (dose: 25.0 mg/kg/injection, schedule: Q01DX009 (ip), vehicle: saline); 116 % of control (dose: 25.0 mg/kg/injection, schedule: Q04DX003 (ip), vehicle: saline); 100 % of control (dose: 50.0 mg/kg/injection, schedule: Q01DX009 (ip), vehicle: saline); 100 % of control (dose: 50.0 mg/kg/injection, schedule: Q04DX003 (ip), vehicle: saline); 100 % of control (dose: 75.0 mg/kg/injection, schedule: Q04DX003 (ip), vehicle: saline). In addition, the T/C by setting is: (dose: 115.0 mg/kg/injection, schedule: Q04DX003 (ip), vehicle: saline) 86 % of control; (dose: 170.0 mg/kg/injection, schedule: Q04DX003 (ip), vehicle: saline) 90 % of control.
As for `Cc1ccc(Nc2c([N+](=O)[O-])c(=O)n(C)c(=O)n2C)cc1C`, the T/C is 103 % of control under setting [4], 96 % of control under setting [6] and 96 % of control under setting [5].
In the case of `O=C1CC2(C(=O)N1CN(Cc1ccccc1)Cc1ccccc1)c1ccccc1-c1ccccc12`, the T/C reads like this: (dose: 100.0 mg/kg/injection, schedule: Q04DX002 (ip), vehicle: saline with Tween-80) 87 % of control; (dose: 200.0 mg/kg/injection, schedule: Q04DX002 (ip), vehicle: saline with Tween-80) 86 % of control; (dose: 400.0 mg/kg/injection, schedule: Q04DX002 (ip), vehicle: saline with Tween-80) 93 % of control.
In the case of `Fc1ccccc1C1=NCC(=S)N(CC(F)(F)F)c2ccc(Cl)cc21`, the T/C is 100 % of control under setting [4] and 96 % of control under setting [6].
For `CC(C)c1nsc(N)c1C(N)=O` the same measures were 92 % of control and 96 % of control.
Consider `COc1ccc(CC2C(=O)NC(C)C(=O)N(C)C3C(=O)N(C)C(Cc4ccc(O)c(c4)Oc4ccc(cc4)C3O)C(=O)NC(C)C(=O)NC(C)C(=O)N2C)cc1` (stereo unspecified), for which the T/C is, setting by setting: (dose: 0.11 mg/kg/injection, schedule: Q01DX009 (ip), vehicle: alcohol) 150 % of control; (dose: 0.11 mg/kg/injection, schedule: Q01DX009 (ip), vehicle: saline) 164 % of control; (dose: 0.16 mg/kg/injection, schedule: Q01DX009 (ip), vehicle: alcohol) 158 % of control; (dose: 0.25 mg/kg/injection, schedule: Q01DX009 (ip), vehicle: alcohol) 188 % of control; (dose: 1.0 mg/kg/injection, schedule: Q01DX009 (ip), vehicle: distilled water + Tween-80) 173 % of control; (dose: 10.0 micrograms/kg/injection, schedule: Q01DX009 (ip), vehicle: alcohol) 110 % of control. The T/C is, setting by setting: (dose: 518.0 micrograms/kg/injection, schedule: Q04DX003 (ip), vehicle: other) 163 % of control; (dose: 864.0 micrograms/kg/injection, schedule: Q04DX003 (ip), vehicle: other) 184 % of control; (dose: 1440.0 micrograms/kg/injection, schedule: Q04DX003 (ip), vehicle: other) 175 % of control; (dose: 2400.0 micrograms/kg/injection, schedule: Q04DX003 (ip), vehicle: other) 181 % of control.
Regarding `CC(=O)C/C(C)=N\NC(=S)SCc1ccccc1`, the T/C was 90 % of control (dose: 75.0 mg/kg/injection, schedule: Q01DX009 (ip), vehicle: saline with Tween-80); 97 % of control (dose: 150.0 mg/kg/injection, schedule: Q01DX009 (ip), vehicle: saline with Tween-80); 92 % of control (dose: 300.0 mg/kg/injection, schedule: Q01DX009 (ip), vehicle: saline with Tween-80).
For the compound `CN(C)C1C(=O)C(C(N)=O)=C(O)C2(O)C(=O)C3=C(O)c4c(O)cccc4C(C)(O)C3CC12.O.O.O.[Al]` (stereo unspecified), the T/C (dose: 100.0 mg/kg/injection, schedule: Q01DX009 (ip), vehicle: Klucel (hydroxypropylcellulose) (HPC)) was 101 % of control; the T/C (dose: 200.0 mg/kg/injection, schedule: Q01DX009 (ip), vehicle: Klucel (hydroxypropylcellulose) (HPC)) was 92 % of control; the T/C (dose: 400.0 mg/kg/injection, schedule: Q01DX009 (ip), vehicle: Klucel (hydroxypropylcellulose) (HPC)) was 121 % of control.
With `CC(=O)OC(C)(C)c1ccccc1[S+]1OC(C)(C)c2ccccc21` (stereo unspecified), the T/C (dose: 100.0 mg/kg/injection, schedule: Q01DX001 (ip), vehicle: other) is 100 % of control.
Take `OC1COC(O)C(O)C1O` (stereo unspecified): the T/C is 102 % of control (dose: 250.0 mg/kg/injection, schedule: Q04DX003 (ip), vehicle: saline); 100 % of control (dose: 500.0 mg/kg/injection, schedule: Q04DX003 (ip), vehicle: saline); 100 % of control (dose: 1000.0 mg/kg/injection, schedule: Q04DX003 (ip), vehicle: saline); 111 % of control (dose: 2000.0 mg/kg/injection, schedule: Q04DX003 (ip), vehicle: saline).
For `O=C(C(=O)c1ccc(Br)cc1)c1ccc(Br)cc1`, the T/C by setting is: under setting [6], 96 % of control; under setting [5], 98 % of control; (dose: 400.0 mg/kg/injection, schedule: Q01DX009 (ip), vehicle: saline with Tween-80) 98 % of control.
On to `[CH3][Sn]([CH3])([CH3])[O]C(=O)CCl`, for which the T/C is 120 % of control (dose: 0.75 mg/kg/injection, schedule: Q01DX009 (ip), vehicle: saline) and 106 % of control (dose: 1.5 mg/kg/injection, schedule: Q01DX009 (ip), vehicle: saline).
Consider `CC12CCC(O)CC1CCC1C2CCC2(C)C(c3ccc(=O)oc3)C(O)C3OC132` (stereo unspecified), for which the T/C was 100 % of control (dose: 3.5 mg/kg/injection, schedule: Q01DX009 (ip), vehicle: Klucel (hydroxypropylcellulose) (HPC)) and 102 % of control (dose: 7.0 mg/kg/injection, schedule: Q01DX009 (ip), vehicle: Klucel (hydroxypropylcellulose) (HPC)).
Consider `O=C1c2sccc2-c2cccc3cccc1c23`, for which the T/C reads like this: (dose: 50.0 mg/kg/injection, schedule: Q04DX003 (ip), vehicle: saline with Tween-80) 96 % of control; (dose: 100.0 mg/kg/injection, schedule: Q04DX003 (ip), vehicle: saline with Tween-80) 93 % of control; under setting [1], 94 % of control; under setting [3], 86 % of control.

For the origin of these results see PubChem BioAssay AID328 (DTP/NCI, 2004).
